Counter-ions that a name gives are not always drawn.
Test system: rabbit cornea
Assay: Corneal anaesthesia in rabbit (blinking reflex, Camougis and Tankman method)
Type: in vivo
Conditions: rabbit eye
Protocol: […] of solution was instilled in the conjunctival sac. The blinking reflex, tested with a bristle, was measured before instillation and then every 5-10 minutes until one hour after treatment. At each test time the degree of anaesthesia was expressed by means of a score of up to 10 given by the number of stimulations before the eye-blink reflex was obtained. The overall anaesthetic effect for each compound was then quantified by the area under curve (AUC) of the degree of anaesthesia over time.

[1] = Table 1, dose 0.125% (as hydrochloride), reference Bupivacaine HCl = 100
[2] = Table 5, dose 0.125%, degree of salification, 500-730 kDa, reference Bupivacaine HCl = 100

Compound: CN(C)CCCOc1nn(Cc2ccccc2)c2ccccc12 [Benzydamine HCl, benzydamine hydrochloride]
- Anaesthesia (AUC) (Table 1, dose 0.125% (as hydrochloride), reference Benzydamine HCl = 100): 100
- Anaesthesia (AUC) (Table 6, dose 0.125%, degree of salification, 50-350 kDa, reference Benzydamine HCl = 100): 100

Compound: CCCCN1CCCCC1C(=O)Nc1c(C)cccc1C (stereo not drawn) [Bupivacaine HCl, bupivacaine hydrochloride]
- Anaesthesia (AUC) [1]: 100
- Anaesthesia (AUC) (Table 3, first group (50% Na salts), dose 0.125%, reference Bupivacaine HCl = 100): 100
- Anaesthesia (AUC) (Table 3, second group (50% Ca salts), dose 0.125%, reference Bupivacaine HCl = 100): 100
- Anaesthesia (AUC) [2]: 100

Compound: stoichiometrically neutral salt of hyaluronic acid with bupivacaine [FID 60.2082]
- Anaesthesia (AUC) [1]: 166
- Anaesthesia (AUC) (Table 2, dose 0.125%, FID 60.20XX (50-350 kDa), reference FID 60.2082 = 100): 100

Compound: stoichiometrically neutral salt of hyaluronic acid with bupivacaine [FID 61.2082]
- Anaesthesia (AUC) (Table 2, dose 0.125%, FID 61.20XX (500-730 kDa), reference FID 61.2082 = 100): 100
- Anaesthesia (AUC) [2]: 314

Compound: stoichiometrically neutral salt of hyaluronic acid with bupivacaine [FID 62.2082]
- Anaesthesia (AUC) (Table 2, dose 0.125%, FID 62.20XX (750-1200 kDa), reference FID 62.2082 = 100): 100

Compound: stoichiometrically neutral salt of hyaluronic acid with lidocaine [FID 60.2070]
- Anaesthesia (AUC) (Table 1, dose 1% (as hydrochloride), reference Lidocaine HCl = 100): 167

Reference: patent US6224857A, “Pharmaceutical preparations comprised of salts of hyaluronic acid with local anaesthetics” (Fidia, S.p.A., priority 1996, dated 2001)
